Laboratory results reported in article PMC3340011 (Biophysical Chemistry, 2011).
“Also recorded” adds a separate entry of the source.

How the values were obtained:
[1] = target: CaM76–148 (C-domain of calmodulin) (Rattus norvegicus, UniProt P0DP29); assay: Fluorescence anisotropy titration of Fl-Cav1.2p with CaM C-domain; type: binding
[2] = system: CaM1–80, sites I and II; assay: Fluorescence-monitored equilibrium Ca^2+ titration, sites I and II of CaM1–80; type: binding, rat
[3] = system: CaM1–148, sites I and II (N-domain); assay: Fluorescence-monitored equilibrium Ca^2+ titration, sites I and II of CaM1–148; type: binding, rat; settings: for ΔΔG2 = ΔG2^app(CaM+CaV1.2p) − ΔG2^app(CaM): CaM1–148, sites I and II; for effect on Ca^2+-binding affinity of N-domain (in words): compared with IQ1644
[4] = system: CaM76–148, sites III and IV; type: binding, rat
[5] = system: CaM1–148, sites III and IV (C-domain); assay: Fluorescence-monitored equilibrium Ca^2+ titration, sites III and IV of CaM1–148; type: binding, rat; settings: for ΔΔG2 = ΔG2^app(CaM+CaV1.2p) − ΔG2^app(CaM): CaM1–148, sites III and IV
[6] = system: CaM1–148, sites I and II (N-domain); settings: previous study; cited from earlier work
[7] = system: CaM1–148, sites III and IV (C-domain); settings: previous study; cited from earlier work
[8] = target: CaM1–80 (N-domain of calmodulin) (Rattus norvegicus, UniProt P0DP29); assay: Fluorescence anisotropy titration of Fl-Cav1.2p with CaM N-domain; type: binding; settings: pre-IQ region, calcium-saturated
[9] = Calcium dissociation from fluorescent indicator dye; type: binding
[10] = no peptide, 2 μM CaM, pH 7.4, 22 °C, average ± SD
[11] = no peptide, pH 7.4, 22 °C, average ± SD

Molecule	ΔΔG2 = ΔG2^app(CaM+CaV1.2p) − ΔG2^app(CaM) [2] [kcal/mol]	ΔΔG2 = ΔG2^app(CaM+CaV1.2p) − ΔG2^app(CaM) [3] [kcal/mol]	effect on Ca^2+-binding affinity of N-domain (in words) [3]	ΔΔG2 = ΔG2^app(CaM+CaV1.2p) − ΔG2^app(CaM) [4] [kcal/mol]	ΔΔG2 = ΔG2^app(CaM+CaV1.2p) − ΔG2^app(CaM) [5] [kcal/mol]	also measured
CC[C@H](C)[C@H](NC(=O)[C@H](CC(C)C)NC(=O)[C@H](Cc1ccccc1)NC(=O)[C@@H](NC(=O)[C@H](C)N)[C@@H](C)O)C(=O)N[C@@H](CCC(N)=O)C(=O)N[C@@H](CCC(=O)O)C(=O)N[C@@H](Cc1ccc(O)cc1)C(=O)N[C@@H](Cc1ccccc1)C(=O)N[C@@H](CCCNC(=N)N)C(=O)N[C@@H](CCCCN)C(=O)N[C@@H](Cc1ccccc1)C(=O)N[C@@H](CCCCN)C(=O)N[C@@H](CCCCN)C(=O)N[C@@H](CCCNC(=N)N)C(=O)N[C@@H](CCCCN)C(=O)N[C@@H](CCC(=O)O)C(=O)N[C@@H](CCC(N)=O)C(=O)NCC(=O)N[C@@H](CC(C)C)C(=O)N[C@H](C(=O)NCC(=O)N[C@@H](CCCCN)C(=O)N1CCC[C@H]1C(=O)N[C@@H](CO)C(=O)N[C@@H](CCC(N)=O)C(=O)O)C(C)C [IQ′1650]	-0.82	-1.24	much weaker effect	-3.35	-3.63	fold more favorable affinity for CaM76–148 than CaM1–80 ([1]; Ca^2+-saturated): about 100 fold; Kd ([1]; Kd (CaM dissociation from Fl-Cav1.2p), calcium-saturated, CaM76–148, 10 mM CaCl2, pH 7.4, 22 °C, limit): ≤ 10 nM
CaM1–80: N-domain fragment of calmodulin, residues 1–80						ΔG1^app (calcium binding) [2, 10]: -5.92 ± 0.38 kcal/mol; ΔG2^app (calcium binding) [2, 10]: -12.76 ± 0.09 kcal/mol
CaM76–148: C-domain fragment of calmodulin, residues 76–148						ΔG1^app (calcium binding) [4, 11]: -5.45 ± 0.51 kcal/mol; ΔG2^app (calcium binding) [4, 11]: -14.66 ± 0.13 kcal/mol
H-ELRAIIKKIWKRTSMKLLDQVV-OH [C1614]	-1.15	-1.10	much weaker effect	-2.95	-2.94	domain preference, (Ca^2+)2-C-domain ([1]; pre-IQ region, calcium-saturated): preferred C1614; effect on Ca^2+-binding affinity of N-domain of CaM1–148 [6]: there was not an effect on the N-domain; effect on Ca^2+-binding affinity of C-domain of CaM1–148 [7]: increased the Ca^2+-binding affinity of the C-domain of CaM1–148
H-FNATLFALVRTALRIKTEGNLE-OH [A1588]	-1.55	-2.99		-0.72	-1.05	domain preference, (Ca^2+)2-N-domain [8]: bound preferentially to A1588; also recorded: higher affinity for CaM1–80 than for CaM76–148; also recorded: binding the N-domain of CaM more favorably than the C-domain; effect on Ca^2+-binding affinity of C-domain (in words) [5]: weak effect
XRhod5F						fold lower Kd for calcium (vs Oregon Green) [9]: ~ 20 fold
